Like-named read-outs stand apart in the source and are kept apart here.
Assays:
[1] = Pharmacokinetic (PK) assay in mice; format: in vivo; conditions: CD-1 mice; for CL_obs: values marked **; for AUC(0-t) / Cmax / half-life / Vd / bioavailability: mouse, plasma; for Vd: read-out: Vss; for bioavailability: Po 5 mg/kg vs IV 1 mg/kg
Experimental: The PK of each compound was determined as follows: 6 CD-1 mice (obtained from Shanghai Lingchang Biotechnology Co., Ltd.) were divided into two groups, 3 mice in each group. One group was administered intravenously at a dose of 1 mg/kg, and the vehicle was 5% DMSO/40% PEG400/55% (20% 3-CD); one group was administered by oral gavage at a dose of 5 mg/kg, and the vehicle was DMSO/1% methylcellulose (1:99). Blood samples were collected from saphenous vein of lower leg in each group at 0, 0.083, 0.25, 0.5, 1, 2, 4, 6, 8 and 24 h after administration. Approximately 40 μL of the blood samples were collected into anticoagulant tubes containing EDTA-K2. Immediately after collection, the tubes were inverted at least 5 times to ensure uniform mixing, and then placed on ice. The blood samples collected at each time point were centrifuged at 4° C., 8000 rpm for 5 minutes to obtain plasma. Another 1.5 mL centrifuge tube was marked with the compound name, animal number, and time point, and the plasma was transferred to this tube. The plasma was stored at −80° C. until analysis.
Compound concentrations in plasma were determined by UPLC-MS/MS method, and the pharmacokinetic parameters were calculated by Phoenix WinNolin 6.4 pharmacokinetic software on the obtained data.

GST-RORγ LBD (263-509) = molecular target: T1, GST-RORγ LBD (263-509) (Homo sapiens, UniProt P51449); assay: TR-FRET assay of agonistic activity on RORγ receptor; format: biochemical; conditions: for EC50: TR-FRET, GST-RORγ LBD with Biotin-SRC1; for Emax %: maximum activation rate, TOP of fitted curve
T1 construct: GST-RORγ LBD ((263-509) (produced at ChemPartner))
T1 sequence (P51449 263-509): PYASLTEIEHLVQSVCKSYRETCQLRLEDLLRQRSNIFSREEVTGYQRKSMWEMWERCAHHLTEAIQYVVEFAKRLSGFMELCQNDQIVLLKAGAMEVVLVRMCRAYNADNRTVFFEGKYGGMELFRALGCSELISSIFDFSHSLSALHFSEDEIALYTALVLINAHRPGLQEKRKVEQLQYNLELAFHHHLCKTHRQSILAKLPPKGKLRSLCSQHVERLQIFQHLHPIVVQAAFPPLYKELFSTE
Experimental: A time-resolved fluorescence resonance energy transfer (TR-FRET) assay was used for the compounds of the present disclosure, to determine the agonistic activity of the compounds on the RORγ protein receptor. The agonistic activity is expressed by the concentration for 50% of maximal effect (EC50). The experiment was performed basically with reference to the methods described in ONCOIMMUNOLOGY, 2016, VOL. 5, NO. 12, e1254854.
1. Preparation of RORγ Basal Buffer
A 100 mL basal buffer was prepared, mixed homogeneously and stored for use;
The compounds of the examples shown in the table below were prepared into solutions with DMSO as the solvent, serially diluted at 3-fold dilution to 10 concentrations starting from 10 mM, and added to the corresponding wells of a 384-well plate with each concentration of each compound in duplicate;
a. A 75 nM solution of GST-RORγ LBD ((263-509) (produced at ChemPartner)) and a 4 nM solution of Biotin-SRC1 (Glsbiochem) were prepared with the above basal buffer. The two solutions were 1:1 mixed evenly, and 10 μL of the mixed solution was added into each well of the above 384-well plate. The plate was immediately centrifugated at 1000 rpm for 10 seconds; b. A 1 nM solution of Anti-GST Eu (Cisbio, #61GSTKLA) and a 50 nM solution of SA-APC (Cisbio, […]) were prepared with the above basal buffer. The two solutions were 1:1 mixed evenly, and 10 μL of the mixed solution was added into each well of the above 384-well plate. The plate was immediately centrifugated at 1000 rpm for 10 seconds; c. The resulting 384-well plate was incubated at room temperature for 15 minutes. Data were read on an Envision microplate reader, EC50 values and E max % were calculated.
a. Readings were taken at 665 nm and 615 nm wavelengths respectively on the Envision Microplate Reader, and the ratios between them were normalized. b. Calculation was carried out with the following equation: […]
wherein X is the reading of compounds, Min is the reading of the blank solution, and Max is the reading of 10 μM SRC. c. The concentration-response curve data were fitted by a four-parameter logistic nonlinear regression model, and Emax was the TOP value of the fitted curve.

[2] = Metabolic stability in mouse liver microsomes; format: in vitro ADME, CD-1 mice
Source text: (§1) According to standard methods of in vitro metabolic stability studies in the art, eg., the methods described in Kerns, Edward H. and Di Li (2008). Drug-like Properties: Concepts, Structure Design and Methods: from ADME to Toxicity Optimization. San Diego: Academic Press; Di, Li et al., Optimization of a Higher Throughput Microsomal Stability Screening Assay for Profiling Drug Discovery Candidates, J. Biomol. Screen. 2003, The method described in 8(4), 453, the liver microsomal metabolic stability test of the compounds of the present disclosure was carried out analogously as follows.
(§2) The incubation system contained 0.5 mg protein/mL microsomes, cofactors, and PBS, was pre-incubated at 37° C. for 3 min, and then added the substrate (i.e., the test compounds) to initiate the reaction. Samples were taken at 0, 1, 5, 10, 15, 20, 30 and 60 min from the start of the reaction, and an appropriate terminator was added to terminate the reaction.
(§3) The terminator was an ice acetonitrile solution containing 100 ng/mL tolbutamide and 100 ng/mL labetalol.
(§4) Sample treatment (n=3): each appropriate sample was added, vortexed and centrifuged at high speed. The supernatants were collected, and the substrate was detected by HPLC-MS/MS. The peak area at the 0 min was taken as 100%. The peak areas at other time points were converted to percentage of the remaining amount. The natural logarithms of the percentage of remaining amount at each time point was plotted against the incubation time, and the slope (−k) was calculated by linear regression. Then, Clint (uL/min/mg) and half-life (T½, min) of the compounds were calculated following the equation of the inherent clearance rate (Clint)=(k* volume of incubation solution)/mass of liver microsomes.

[3] = molecular target: T2, RORγt (RORγ-LBD chimeric receptor) (Homo sapiens, UniProt P51449); assay: Luciferase reporter gene assay of RORγt agonistic activity in HEK293T cells; format: cell-based; set-up: Emax: dose or concentration left out as unconfirmed; conditions: for Emax: HEK-293T
T2 construct: host or cells: HEK293T
T2 sequence (P51449 269-508 limits assumed): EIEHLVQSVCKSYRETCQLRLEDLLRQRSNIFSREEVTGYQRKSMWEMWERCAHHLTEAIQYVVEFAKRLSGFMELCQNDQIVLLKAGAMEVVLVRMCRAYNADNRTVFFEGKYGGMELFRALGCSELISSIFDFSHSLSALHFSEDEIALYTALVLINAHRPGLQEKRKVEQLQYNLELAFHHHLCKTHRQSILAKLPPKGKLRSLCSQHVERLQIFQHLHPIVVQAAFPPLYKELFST
Source text: This assay was basically carried out according to the method described in the literature ONCOIMMUNOLOGY, 2016, VOL. 5, NO. 12, e1254854.
The RORγ-LBD coding sequence was inserted into pBIND plasmid (Promega, E1581). This expression vector and a reporter vector (pGL4.35 carrying a stably integrated luciferase reporter gene driven by GAL4 promoter) were co-expressed in HEK293T host cells. When the agonist binds to the corresponding chimeric receptor, the chimeric receptor binds to the GAL4 binding site on the reporter gene carrier and stimulates reporter gene expression. The agonistic activity of the compound on RORγ was determined according to the intensity of the chemiluminescence signal.
1.1 All test compounds were serially diluted at 3-fold dilution with DMSO, with 10 serial dilutions starting from 10 mM; LIT-00093 solution was prepared similarly. […] 1.4 The compound plate was sealed and shaken for 5 min.
Cells were cultured according to ATCC standard operation, and 6*10^6 HEK293T cells were seeded into 100 mm cell culture dishes, cultured overnight in a 37° C., 5% CO2 incubator, and then transfected. Compounds of corresponding concentrations were added for treatment, and the Steady-Glo™ kit (Lot E 2520) was used for further detection.
Chemiluminescence values were detected with Envision 2104; EC50 values were calculated.
% Activity was calculated with the following equation: […]
RLU: […] R L Upositive: average value of positive control R L Uvehicle: average value of negative control
The log values of the compound concentration and % Activity were fitted using Graphad 8.0, to calculate EC50s of the compounds.

[4] = Metabolic stability in human liver microsomes; format: in vitro ADME; conditions: for microsomal CLint: 0.5 mg protein/mL
Source text: as §1, §2, §3, §4

Row | CL_obs ([1]; IV 1 mg/kg) | AUC(0-t) ([1]; IV 1 mg/kg) | Cmax ([1]; IV 1 mg/kg) | half-life ([1]; IV 1 mg/kg) | Vd ([1]; IV 1 mg/kg, values marked *) | bioavailability [1] | AUC(0-t) ([1]; Po 5 mg/kg) | Cmax ([1]; Po 5 mg/kg) | half-life ([1]; Po 5 mg/kg) | EC50 (GST-RORγ LBD (263-509)) | Emax % (GST-RORγ LBD (263-509)) | SMILES | Emax [3] | half-life [4] | microsomal CLint [4] | % Remaining (T = 60 min) [4] | other results
1 | 2.40** mL/min/kg | 6880 ng·h/mL | 1340 ng/mL | 3.56 h | 0.83 L/kg | 32.8% | 9140 ng·h/mL | 700 ng/mL | 12.3 h |  |  | COC[C@H](C(=O)Nc1cc(Cl)c(-c2ccc(S(=O)(=O)C3CC3)cc2)c(Cl)c1)c1ccc(S(C)(=O)=O)cc1 (single isomer, unassigned) [Example 35, (S)—N-(2,6-dichloro-4′-(cyclopropylsulfonyl)-[1,1′-biphenyl]-4-yl)-3-methoxy-2-(4-(methylsulfonyl)phenyl)propanamide or (R)—N-(2,6-dichloro-4′-(cyclopropylsulfonyl)-[1,1′-biphenyl]-4-yl)-3-methoxy-2-(4-(methylsulfonyl)phenyl)propanamide] |  |  |  |  | 
2 | 7.21** mL/min/kg | 2170 ng·h/mL | 1320 ng/mL | 2.2 h | 1.27 L/kg | 15.8% | 1440 ng·h/mL | 294 ng/mL | 2.6 h | 27.4 nM | 197.0% | CS(=O)(=O)c1ccc(C(CO)C(=O)Nc2cc(Cl)c(-c3ccc(S(=O)(=O)C4CC4)cc3)c(Cl)c2)cc1 (single isomer, unassigned) [Example 37, (S)—N-(2,6-Dichloro-4′-(cyclopropylsulfonyl)-[1,1′-biphenyl]-4-yl)-2-(4-(methylsulfonyl)phenyl)-3-hydroxypropionamide or (R)—N-(2,6-dichloro-4′-(cyclopropylsulfonyl)-[1,1′-biphenyl]-4-yl)-2-(4-(methylsulfonyl)phenyl)-3-hydroxypropionamide] |  |  |  |  | 
3 | 8.22** mL/min/kg | 2050 ng·h/mL | 1080 ng/mL | 3.7 h | 1.53 L/kg | 17.1% | 1720 ng·h/mL | 400 ng/mL | 3 h | 13.5 nM | 181.3% | CCS(=O)(=O)c1ccc(C(CO)C(=O)Nc2cc(Cl)c(-c3ccc(S(=O)(=O)C4CC4)cc3)c(Cl)c2)cc1 (single isomer, unassigned) [Example 39, (S)—N-(2,6-dichloro-4′-(cyclopropylsulfonyl)-[1,1′-biphenyl]-4-yl)-2-(4-(ethylsulfonyl)phenyl)-3-hydroxypropionamide or (R)—N-(2,6-dichloro-4′-(cyclopropylsulfonyl)-[1,1′-biphenyl]-4-yl)-2-(4-(ethylsulfonyl)phenyl)-3-hydroxypropionamide] |  |  |  |  | 
4 |  |  |  |  |  |  |  |  |  |  |  | CS(=O)(=O)c1ccc(-c2c(Cl)cc(NC(=O)Cc3ccc(S(=O)(=O)CCO)cc3)cc2Cl)cc1 [Example 14, N-(2,6-Dichloro-4′-(methylsulfonyl)-[1,1′-biphenyl]-4-yl)-2-(4-(2-hydroxyethylsulfonyl)phenyl)acetamide] | 40.7% | 1.55 h | 14.9 µL/min/mg | 61.7% | % Remaining (T = 60 min) ([2]; 60 min): 87.3%; half-life ([2]; CD-1): > 2.42 h; microsomal CLint ([2]; CD-1, 0.5 mg protein/mL): < 9.6 µL/min/mg; EC50 [3]: 225 nM
5 |  |  |  |  |  |  |  |  |  |  |  | CC(C)Cc1ccc(-c2c(Cl)cc(NC(=O)Cc3ccc(S(C)(=O)=O)cc3)cc2Cl)cc1C#N [LIT-00093, reference compound] | 83.9% | 0.0783 h | 295 µL/min/mg | 0% | EC50 ([3]; HEK293T, GAL4 luciferase reporter, read-out: EC50): 116 nM
6 |  | 256 ng·h/mL | 353 ng/mL | 2.63 h |  | 21% | 269 ng·h/mL | 52.6 ng/mL | 5.35 h |  |  | CC(C)(C[C@H]1CN(S(=O)(=O)c2cccc(C(F)(F)F)c2)c2cc(-c3cc(F)cc(OC(F)F)c3)ccc2O1)C(=O)O [LYC-55716, reference compound] |  |  |  |  | Vd ([1]; IV 1 mg/kg): 7.23 L/kg

— patent US20220402867A1, “SULFO-SUBSTITUTED BIARYL COMPOUND OR SALT THEREOF, PREPARATION METHOD THEREFOR, AND USE THEREOF” (Shanghai Litedd Co., Ltd., priority 2019, published 2022)
